Reference: the NIST ThermoML archive (doi:10.1016/j.jct.2013.08.030)
± gives the expanded uncertainty stated by the source.

Columns and labels:
[1] = activity coefficient (dimensionless); of the first substance listed, at infinite dilution; xn = mol fraction of the nth substance listed; details: 101 kPa, Liquid, Chromatography, x1 = 0
[2] = 101.33 kPa, Liquid, Vibrating tube method

SMILES	activity coefficient ([1]; 318.15 K)	activity coefficient ([1]; 328.15 K)	activity coefficient ([1]; 338.15 K)	activity coefficient ([1]; 348.15 K)	activity coefficient ([1]; 358.15 K)	activity coefficient ([1]; 368.15 K)	mass density ([2]; 288.15 K) [kg/m3]	mass density ([2]; 298.15 K) [kg/m3]	mass density ([2]; 308.15 K) [kg/m3]	mass density ([2]; 318.15 K) [kg/m3]	mass density ([2]; 328.15 K) [kg/m3]	mass density ([2]; 338.15 K) [kg/m3]	mass density ([2]; 348.15 K) [kg/m3]	mass density ([2]; 358.15 K) [kg/m3]	mass density ([2]; 368.15 K) [kg/m3]
c1ccccc1 [benzene] + CCCC[N+]1(C)CCOCC1.N#C[C-](C#N)C#N	1.53 ± 0.1	1.55 ± 0.1	1.57 ± 0.1	1.58 ± 0.1	1.61 ± 0.11	1.62 ± 0.11									
CCC(=O)CC [pentan-3-one] + CCCC[N+]1(C)CCOCC1.N#C[C-](C#N)C#N	1.42 ± 0.09	1.44 ± 0.09	1.47 ± 0.1	1.49 ± 0.1	1.51 ± 0.1	1.54 ± 0.1									
CC1CCCCC1 [methylcyclohexane] + CCCC[N+]1(C)CCOCC1.N#C[C-](C#N)C#N	35.2 ± 2.4	32.3 ± 2.2	29.7 ± 2	27.6 ± 1.9	25.7 ± 1.8	24 ± 1.6									
CCCCC [pentane] + CCCC[N+]1(C)CCOCC1.N#C[C-](C#N)C#N	39.7 ± 2.7	35.5 ± 2.4	32.2 ± 2.2	29.8 ± 2	27.7 ± 1.9	26.2 ± 1.8									
CCCC[N+]1(C)CCOCC1.N#C[C-](C#N)C#N [4-butyl-4-methylmorpholinium tricyanomethanide]							1073.6 ± 2.2	1067.03 ± 2.2	1060.79 ± 2.2	1054.69 ± 2.2	1048.61 ± 2.1	1042.61 ± 2.1	1036.67 ± 2.1	1030.77 ± 2.1	1024.3 ± 2.1
CCO [ethanol] + CCCC[N+]1(C)CCOCC1.N#C[C-](C#N)C#N	1.26 ± 0.08	1.19 ± 0.08	1.12 ± 0.07	1.06 ± 0.07	1.01 ± 0.06	0.965 ± 0.061									
CCCCCCC [heptane] + CCCC[N+]1(C)CCOCC1.N#C[C-](C#N)C#N	84 ± 5.8	76.8 ± 5.3	69.6 ± 4.8	63.3 ± 4.3	58.7 ± 4	53.7 ± 3.7									
CCCOCCC [dipropyl ether] + CCCC[N+]1(C)CCOCC1.N#C[C-](C#N)C#N	16.4 ± 1.1	15.9 ± 1.1	15.4 ± 1.1	14.9 ± 1	14.4 ± 1	13.9 ± 1									
C=Cc1ccccc1 [styrene] + CCCC[N+]1(C)CCOCC1.N#C[C-](C#N)C#N	1.82 ± 0.12	1.86 ± 0.13	1.9 ± 0.13	1.93 ± 0.13	1.96 ± 0.13	1.99 ± 0.14									
C=CCCCC [hex-1-ene] + CCCC[N+]1(C)CCOCC1.N#C[C-](C#N)C#N	22.6 ± 1.5	21.3 ± 1.5	20 ± 1.4	19.1 ± 1.3	18.2 ± 1.2	17.4 ± 1.2									
CCCO [propan-1-ol] + CCCC[N+]1(C)CCOCC1.N#C[C-](C#N)C#N	1.62 ± 0.11	1.52 ± 0.1	1.43 ± 0.09	1.35 ± 0.09	1.29 ± 0.08	1.23 ± 0.08									
Cc1ccccc1 [toluene] + CCCC[N+]1(C)CCOCC1.N#C[C-](C#N)C#N	2.3 ± 0.16	2.33 ± 0.16	2.36 ± 0.16	2.38 ± 0.16	2.41 ± 0.16	2.43 ± 0.17									
Cc1ccccc1C [1,2-dimethylbenzene] + CCCC[N+]1(C)CCOCC1.N#C[C-](C#N)C#N	2.96 ± 0.2	2.99 ± 0.2	3.02 ± 0.21	3.04 ± 0.21	3.07 ± 0.21	3.08 ± 0.21									
CCCCO [butan-1-ol] + CCCC[N+]1(C)CCOCC1.N#C[C-](C#N)C#N	2.18 ± 0.15	2.04 ± 0.14	1.91 ± 0.13	1.79 ± 0.12	1.7 ± 0.11	1.61 ± 0.11									
CCc1ccccc1 [ethylbenzene] + CCCC[N+]1(C)CCOCC1.N#C[C-](C#N)C#N	3.74 ± 0.25	3.74 ± 0.25	3.75 ± 0.26	3.75 ± 0.26	3.75 ± 0.26	3.75 ± 0.26									
CCCCCCCCC [nonane] + CCCC[N+]1(C)CCOCC1.N#C[C-](C#N)C#N	187 ± 13	168 ± 12	151 ± 10	137 ± 9	126 ± 9	115 ± 8									
CCC(C)CC [3-methylpentane] + CCCC[N+]1(C)CCOCC1.N#C[C-](C#N)C#N	51.3 ± 3.5	46 ± 3.1	42.3 ± 2.9	38.9 ± 2.7	36.3 ± 2.5	33.5 ± 2.3									
C1CCCCCC1 [cycloheptane] + CCCC[N+]1(C)CCOCC1.N#C[C-](C#N)C#N	28.1 ± 1.9	26 ± 1.8	24 ± 1.6	22.5 ± 1.5	21 ± 1.4	19.7 ± 1.3									
CC(C)(C)O [2-methylpropan-2-ol] + CCCC[N+]1(C)CCOCC1.N#C[C-](C#N)C#N	2 ± 0.14	1.88 ± 0.13	1.77 ± 0.12	1.69 ± 0.11	1.63 ± 0.11	1.58 ± 0.1									
CCCC=O [butanal] + CCCC[N+]1(C)CCOCC1.N#C[C-](C#N)C#N	1.2 ± 0.08	1.24 ± 0.08	1.26 ± 0.08	1.3 ± 0.08	1.33 ± 0.09	1.35 ± 0.09									
CC(C)CC(C)(C)C [2,2,4-trimethylpentane] + CCCC[N+]1(C)CCOCC1.N#C[C-](C#N)C#N	103 ± 7	93.4 ± 6.4	84.2 ± 5.8	76.9 ± 5.3	70.8 ± 4.9	64.5 ± 4.4									
c1ccncc1 [pyridine] + CCCC[N+]1(C)CCOCC1.N#C[C-](C#N)C#N	0.733 ± 0.049	0.748 ± 0.049	0.758 ± 0.05	0.766 ± 0.05	0.766 ± 0.05	0.788 ± 0.051									
C1CCCCCCC1 [cyclooctane] + CCCC[N+]1(C)CCOCC1.N#C[C-](C#N)C#N	37 ± 2.5	34.1 ± 2.3	31.2 ± 2.1	29.1 ± 2	27 ± 1.8	25.1 ± 1.7									
CO [methanol] + CCCC[N+]1(C)CCOCC1.N#C[C-](C#N)C#N	0.825 ± 0.053	0.79 ± 0.051	0.762 ± 0.05	0.729 ± 0.048	0.704 ± 0.047	0.677 ± 0.046									
C1CCCC1 [cyclopentane] + CCCC[N+]1(C)CCOCC1.N#C[C-](C#N)C#N	14.7 ± 1	13.7 ± 0.9	12.8 ± 0.9	12.1 ± 0.8	11.4 ± 0.8	10.9 ± 0.7									
C#CCCCCCC [1-octyne] + CCCC[N+]1(C)CCOCC1.N#C[C-](C#N)C#N	12.8 ± 0.9	12.6 ± 0.9	12.4 ± 0.8	12.2 ± 0.8	12 ± 0.8	11.8 ± 0.8									
